We go through seven molecules from patent US20250215010A1, “DIAZABICYCLOOCTANE DERIVATIVES USEFUL AS MATRIX METALLOPROTEINASE INHIBITORS” (VASA THERAPEUTICS SPOLKA Z OGRANICZONA ODPOWIEDZIALNOSCIA, priority 2022, published 2025).

Common to all, as to assay type: biochemical
One assay deals with T1, MMP1 (Homo sapiens, UniProt P03956).
T1 sequence (P03956 100-269 limits assumed): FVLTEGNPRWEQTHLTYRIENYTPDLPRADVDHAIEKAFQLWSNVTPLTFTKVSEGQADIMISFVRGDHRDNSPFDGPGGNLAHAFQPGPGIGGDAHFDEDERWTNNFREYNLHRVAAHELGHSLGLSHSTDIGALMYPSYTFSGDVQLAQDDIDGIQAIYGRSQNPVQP
Put plainly: MMP-1 colorimetric inhibition assay (Enzo kit BML-AK404). In short, it runs like this: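 Colorimetric kit run per manufacturer protocol. MMP-1 cleaves a thiopeptide substrate (Ac-PLG-[2-mercapto-4-methylpentanoyl]-LG-OC2H5); released thiol reacts with DTNB, monitored at 415 nm. IC50 (nM) from inhibition curves of normalized values.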

Another assay has as its target T2, MMP2 (Homo sapiens, UniProt P08253).
T2 sequence (P08253 110-660): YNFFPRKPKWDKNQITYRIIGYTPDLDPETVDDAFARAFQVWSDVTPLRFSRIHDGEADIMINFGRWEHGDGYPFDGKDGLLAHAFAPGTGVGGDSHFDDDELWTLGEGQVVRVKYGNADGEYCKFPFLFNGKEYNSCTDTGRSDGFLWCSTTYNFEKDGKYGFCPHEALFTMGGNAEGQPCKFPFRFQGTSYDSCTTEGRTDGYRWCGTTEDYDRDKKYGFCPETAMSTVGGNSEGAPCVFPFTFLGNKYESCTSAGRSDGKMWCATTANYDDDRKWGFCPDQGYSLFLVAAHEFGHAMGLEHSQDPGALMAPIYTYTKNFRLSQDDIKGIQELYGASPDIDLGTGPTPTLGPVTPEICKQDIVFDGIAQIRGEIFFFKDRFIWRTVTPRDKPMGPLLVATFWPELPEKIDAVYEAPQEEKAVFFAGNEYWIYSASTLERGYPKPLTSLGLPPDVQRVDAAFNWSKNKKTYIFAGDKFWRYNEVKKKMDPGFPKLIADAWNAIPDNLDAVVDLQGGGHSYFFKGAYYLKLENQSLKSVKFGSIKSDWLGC
The assay can be described thus: MMP-2 colorimetric inhibition assay (Enzo kit BML-AK408). In short, it runs like this:
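Cleavage of the thiopeptide Ac-PLG-[2-mercapto-4-methylpentanoyl]-LG-OC2H5 releases a sulfhydryl that reacts with DTNB, read at 415 nm per the kit protocol. IC50 values (nM) come from inhibition curves of normalized data.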

Another assay deals with T3, ADAM10 (Homo sapiens, UniProt O14672).
T3 construct: purchased AnaSpec, Inc. AS-72226
T3 sequence (O14672 214-748): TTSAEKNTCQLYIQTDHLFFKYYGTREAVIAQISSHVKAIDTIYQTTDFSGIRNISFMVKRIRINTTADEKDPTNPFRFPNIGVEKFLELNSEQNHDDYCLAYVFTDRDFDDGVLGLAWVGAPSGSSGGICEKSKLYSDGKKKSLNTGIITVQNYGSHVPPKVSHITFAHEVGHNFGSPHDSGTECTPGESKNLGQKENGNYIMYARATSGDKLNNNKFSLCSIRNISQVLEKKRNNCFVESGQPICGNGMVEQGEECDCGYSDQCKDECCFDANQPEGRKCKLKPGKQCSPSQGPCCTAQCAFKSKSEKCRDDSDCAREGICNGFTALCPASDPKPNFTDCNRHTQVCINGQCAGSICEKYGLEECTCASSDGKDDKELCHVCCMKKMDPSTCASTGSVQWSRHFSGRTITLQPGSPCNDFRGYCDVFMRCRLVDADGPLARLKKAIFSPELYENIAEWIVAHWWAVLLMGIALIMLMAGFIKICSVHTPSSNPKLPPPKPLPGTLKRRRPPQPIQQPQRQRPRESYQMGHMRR
Put plainly: SensoLyte 520 ADAM10 fluorometric activity assay (AnaSpec AS-72226). In short, it runs like this:
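ADAM10 activity was read by cleavage of a FRET peptide substrate (5-FAM/QXL 520), run per the kit protocol, with fluorescence at 495/520 nm. IC50 values (nM) came from inhibition curves of normalized data.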

The next assay addresses T4, MMP13 (Homo sapiens, UniProt P45452).
T4 construct: purchased Enzo Life Sciences, Inc. BML-AK412
The assay can be described thus: MMP-13 colorimetric inhibition assay (Enzo kit BML-AK412). In short, it runs like this:
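Thiopeptide chromogenic substrate (Ac-PLG-[2-mercapto-4-methylpentanoyl]-LG-OC2H5); MMP-13 hydrolysis of the thioester yields a thiol that reacts with DTNB, read at 415 nm. IC50 values (nM) derived from inhibition curves of normalized data.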

Another assay has as its target MMP9 (Homo sapiens, UniProt P14780). Put plainly: MMP-9 colorimetric inhibition assay (Enzo kit BML-AK410). In short, it runs like this:
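Colorimetric thioester-substrate assay: hydrolysis of Ac-PLG-[2-mercapto-4-methylpentanoyl]-LG-OC2H5 frees a thiol that reacts with DTNB, read at 415 nm. Run per kit protocol. IC50 (nM) taken from inhibition curves of normalized values.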

Another assay deals with ADAM17 (TACE) (Homo sapiens, UniProt P78536). The assay can be described thus: TACE fluorometric inhibition assay (Enzo kit BML-AK310). Summed up:
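Kit-based TACE assay run per manufacturer's protocol, using quenched fluorogenic peptide Mca-PLAQAV-Dpa-RSSSR-NH2 whose cleavage raises Mca fluorescence. Signal read at ex/em 320/420 nm; IC50 (nM) derived from inhibition curves of normalized values.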

Setting [1] is: thiopeptide substrate, absorbance 415 nm, read-out: MMP 1 IC50 class.
[2] abbreviates: thiopeptide substrate, absorbance 415 nm, read-out: MMP 2 IC50 class.
The mark [3] stands for this setting: thiopeptide substrate, absorbance 415 nm, read-out: MMP 13 IC50 class.
Setting [4] is: thiopeptide substrate, absorbance 415 nm, read-out: MMP 9 IC50 class.
Setting [5] is: quenched fluorogenic peptide, ex/em 320/420 nm, read-out: TACE IC50 class.
The mark [6] stands for this setting: FRET peptide substrate, ex/em 495/520 nm, read-out: ADAM 10 IC50 class.

The structures appear in SMILES notation. Where two headings read alike, the source gives them in different places. Bounds are passed on as bounds.

Sequence of ADAM17 (TACE) (P78536 215-477 limits assumed): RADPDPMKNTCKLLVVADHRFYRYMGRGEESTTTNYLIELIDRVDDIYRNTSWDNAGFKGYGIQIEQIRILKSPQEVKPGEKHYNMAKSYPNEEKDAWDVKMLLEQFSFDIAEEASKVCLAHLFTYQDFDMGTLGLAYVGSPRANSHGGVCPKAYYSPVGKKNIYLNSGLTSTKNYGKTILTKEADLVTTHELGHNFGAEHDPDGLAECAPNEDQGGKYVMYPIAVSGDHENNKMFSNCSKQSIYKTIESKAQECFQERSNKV
Sequence of MMP9 (P14780 94-707): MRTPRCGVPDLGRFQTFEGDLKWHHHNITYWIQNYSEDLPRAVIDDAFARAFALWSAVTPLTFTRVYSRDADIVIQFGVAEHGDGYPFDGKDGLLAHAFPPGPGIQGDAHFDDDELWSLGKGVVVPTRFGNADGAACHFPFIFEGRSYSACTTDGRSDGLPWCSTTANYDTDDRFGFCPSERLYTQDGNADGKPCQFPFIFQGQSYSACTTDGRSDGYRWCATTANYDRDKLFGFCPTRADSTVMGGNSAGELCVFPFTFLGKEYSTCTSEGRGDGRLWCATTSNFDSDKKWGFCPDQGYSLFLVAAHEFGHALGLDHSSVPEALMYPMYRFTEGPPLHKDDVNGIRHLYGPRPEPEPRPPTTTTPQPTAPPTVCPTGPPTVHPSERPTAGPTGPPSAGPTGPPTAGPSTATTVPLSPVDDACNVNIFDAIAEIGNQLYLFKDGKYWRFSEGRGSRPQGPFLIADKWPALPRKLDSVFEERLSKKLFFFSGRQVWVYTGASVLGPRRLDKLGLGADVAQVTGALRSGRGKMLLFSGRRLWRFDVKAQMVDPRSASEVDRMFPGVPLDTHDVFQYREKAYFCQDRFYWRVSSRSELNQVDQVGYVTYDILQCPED

Broadly, the IC50 is the concentration needed to halve the response being measured. For `COCCOC(=O)N1[C@@H]2CC[C@H]1[C@H](C(=O)NO)N(S(=O)(=O)c1ccc(Oc3ccc(F)cc3)c(F)c1)C2` [Example 5, 2-methoxyethyl (1S,2R,5R)-3-((3-fluoro-4-(4-fluoro-phenoxy)phenyl)-sulfonyl)-2-(hydroxycarbamoyl)-3,8-diazabicyclo[3.2.1]-octane-8-carboxylate], the IC50 on MMP1 (setting [1]) was 50 to 1000 nM; on MMP2 (setting [2]), < 50 nM; on ADAM10 it was 50 to 1000 nM; on MMP13 (setting [3]), < 50 nM; at MMP9 (setting [4]), < 50 nM; on ADAM17 (TACE) (setting [5]), 50 to 1000 nM.
Take `CC(C)(C)C(=O)N1[C@@H]2CC[C@H]1[C@H](C(=O)NO)N(S(=O)(=O)c1ccc(Oc3ccc(OC(F)(F)F)cc3)nc1)C2` [Example 57, (1S,2R,5R)-N-hydroxy-8-pivaloyl-3-((6-(4-(trifluoro-methoxy)phenoxy)-pyridin-3-yl)-sulfonyl)-3,8-diazabicyclo-[3.2.1]octane-2-carboxamide]: the IC50 is 1000 to 10000 nM at MMP1 (setting [1]); < 50 nM on MMP2 (setting [2]); > 10000 nM at ADAM10 (setting [6]); < 50 nM on MMP13 (setting [3]); < 50 nM at MMP9 (setting [4]); 1000 to 10000 nM at ADAM17 (TACE) (setting [5]).
As for `COCCOC(=O)N1[C@@H]2CC[C@H]1[C@H](C(=O)NO)N(S(=O)(=O)c1ccc(Oc3ccc(OC)c(F)c3)nc1)C2` [Example 34, 2-methoxyethyl (1S,2R,5R)-3-((6-(3-fluoro-4-methoxy-phenoxy)pyridin-3-yl)sulfonyl)-2-(hydroxycarbamoyl)-3,8-diaza-bicyclo[3.2.1]octane-8-carboxylate], the IC50 on MMP1 (setting [1]) was 1000 to 10000 nM; at MMP2 (setting [2]), < 50 nM; at ADAM10 (setting [6]), 1000 to 10000 nM; at MMP13 (setting [3]), < 50 nM; on MMP9 (setting [4]) it was < 50 nM; at ADAM17 (TACE) (setting [5]) it was 1000 to 10000 nM.
In the case of `O=C(NO)[C@H]1[C@@H]2CC[C@H](CN1S(=O)(=O)c1ccc(Oc3ccc(OCC(F)(F)F)cc3)nc1)N2C(=O)N1CCOCC1` [Example 72, (1S,2R,5R)-N-hydroxy-8-(morpholine-4-carbonyl)-3-((6-(4-(2,2,2-trifluoroethoxy)-phenoxy)pyridin-3-yl)sulfonyl)-3,8-diazabicyclo[3.2.1]-octane-2-carboxamide], the IC50 at MMP1 is 1000 to 10000 nM; against MMP2, < 50 nM; against ADAM10 it was > 10000 nM; against MMP13, < 50 nM; at MMP9, < 50 nM; on ADAM17 (TACE) it was > 10000 nM.
For the molecule `CCOc1ccc(Oc2ccc(S(=O)(=O)N3C[C@H]4CC[C@@H]([C@@H]3C(=O)NO)N4C(=O)OCCOC)cn2)cc1` [Example 29, 2-methoxyethyl (1S,2R,5R)-3-((6-(4-ethoxyphenoxy)-pyridin-3-yl)-sulfonyl)-2-(hydroxycarbamoyl)-3,8-diazabicyclo-[3.2.1]octane-8-carboxylate], the IC50 at MMP1 (setting [1]) was 50 to 1000 nM; at MMP2 (setting [2]), < 50 nM; on ADAM10 (setting [6]), > 10000 nM; against MMP13 it was < 50 nM; at MMP9 (setting [4]), < 50 nM; on ADAM17 (TACE) (setting [5]), 1000 to 10000 nM.
As to `COCCOC(=O)N1[C@@H]2CC[C@H]1[C@H](C(=O)NO)N(S(=O)(=O)c1ccc(Oc3ccc(OC(C)(C)C)cc3)nc1)C2` [Example 31, 2-methoxyethyl (1S,2R,5R)-3-((6-(4-(tert-butoxy)-phenoxy)pyridin-3-yl)sulfonyl)-2-(hydroxycarbamoyl)-3,8-diazabicyclo-[3.2.1]octane-8-carboxylate], the 50% inhibitory concentration (IC50) on MMP1 (setting [1]) is > 10000 nM; at MMP2 (setting [2]), < 50 nM; on ADAM10 (setting [6]), > 10000 nM; at MMP13 (setting [3]) it was < 50 nM; on MMP9 (setting [4]), < 50 nM; at ADAM17 (TACE) (setting [5]), > 10000 nM.
For the molecule `COC(=O)N1[C@@H]2CC[C@H]1[C@H](C(=O)NO)N(S(=O)(=O)c1ccc(Oc3ccc(F)cc3)nc1)C2` [Example 66, methyl (1S,2R,5R)-3-((6-(4-fluoro-phenoxy)pyridin-3-yl)sulfonyl)-2-(hydroxycarbamoyl)-3,8-diazabicyclo-[3.2.1]octane-8-carboxylate], the IC50 on MMP1 (setting [1]) was 1000 to 10000 nM; on MMP2 (setting [2]), < 50 nM; on ADAM10 (setting [6]), > 10000 nM; on MMP13 (setting [3]), < 50 nM; on MMP9 (setting [4]), < 50 nM; at ADAM17 (TACE) (setting [5]), 1000 to 10000 nM.
